Here are results for 35 compounds from patent US6528528B2 (Warner-Lambert Company, priority 1997, dated 2003).

What is called IC50 is the midpoint of a concentration-inhibition curve. A high value points to weaker potency in that assay.

The target of one experiment is T1, rabbit reticulocyte 15-LO (Oryctolagus cuniculus, UniProt P12530).
T1 construct: Fifteen-lipoxygenase was obtained from phenylhydrazine-treated rabbits and purified per the method of Rapoport; from tissue; host or cells: reticulocytes of phenylhydrazine-treated rabbits
T1 sequence (P12530 1-663): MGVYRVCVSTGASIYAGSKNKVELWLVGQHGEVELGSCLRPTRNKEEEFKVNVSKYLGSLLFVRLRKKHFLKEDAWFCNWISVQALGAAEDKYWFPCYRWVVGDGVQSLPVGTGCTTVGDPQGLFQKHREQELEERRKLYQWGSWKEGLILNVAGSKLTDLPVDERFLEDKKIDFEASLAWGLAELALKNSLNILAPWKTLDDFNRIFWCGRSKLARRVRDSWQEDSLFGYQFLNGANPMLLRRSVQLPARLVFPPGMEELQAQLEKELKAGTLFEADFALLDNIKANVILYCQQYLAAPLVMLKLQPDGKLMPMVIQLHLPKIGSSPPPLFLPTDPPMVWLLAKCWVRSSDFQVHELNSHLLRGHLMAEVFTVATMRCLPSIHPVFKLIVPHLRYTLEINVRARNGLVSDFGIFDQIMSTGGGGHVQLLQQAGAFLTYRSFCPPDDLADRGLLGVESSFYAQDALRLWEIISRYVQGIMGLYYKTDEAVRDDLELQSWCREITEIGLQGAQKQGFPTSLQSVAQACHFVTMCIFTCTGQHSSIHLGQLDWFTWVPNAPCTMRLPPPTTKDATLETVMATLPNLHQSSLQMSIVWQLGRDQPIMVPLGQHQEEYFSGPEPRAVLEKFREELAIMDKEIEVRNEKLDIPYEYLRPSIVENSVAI
Put plainly: Rabbit Reticulocyte 15-LO Assay (h15LO). Type of experiment: biochemical. The following applies: Table 2; 2U rabbit reticulocyte 15-LO, 174 μM linoleic acid, 15 minutes at 4° C. The method, then:
Rabbit Reticulocyte 15-LO Assay (h15LO)
The present 15-LO assay takes advantage of the ability of 15-LO to oxidize the fatty acid linoleic acid to the hydroperoxy fatty acid 13-(S)HPODE, resulting in the formation of a conjugated diene. The 15-LO inhibitors are incubated with 15-LO enzyme in the presence of linoleic acid substrate. The initial reaction is compared to an uninhibited (maximal) reaction to yield % inhibition. […] This prevents artificial nonenzyme lipid peroxidation and product breakdown in the sample. 13-HPODE is quantitated by comparing peak areas of individual samples with those from a standard curve generated using authentic 13-HODE. This assay is performed using 2U of rabbit reticulocyte 15-LO in the presence of 174 μM linoleic acid. The reaction is incubated for 15 minutes at 4° C. The total reaction volume is 100 μL in PBS containing 0.2% Na cholate.
Fifteen-lipoxygenase was obtained from phenylhydrazine-treated rabbits and purified per the method of Rapoport (Rapoport S. M., Schewe T., Wiesner R., et al. The lipoxygenase of reticulocytes. Purification, characterization, and biological dynamics of the lipoxygenase; its identity with the respiratory inhibitors of the reticulocyte. European Journal of Biochemistry, 1979;96:545-561). The following chemicals were purchased and used as received: linoleic acid (NUJCheck Prep), 13-HPODE (Biomol Research Labs), sodium cholate (Sigma), trimethyl phosphite (Fluka Chemicals).
As to `COc1ccc(C(=O)Nc2ccc(F)c(F)c2)cc1NCc1cccc(O)c1` [Example 210, 3-(3-Hydroxy-benzylamino)-4-methoxy-N-(3,4-difluoro-phenyl)-benzamide], 24 nM corresponded to half-maximal inhibition (IC50).
In turn, `CCN(CC)c1ccc(CNc2cc(C(=O)Nc3ccccc3)ccc2OC)cc1` [Example 211, 3-(4-Diethylamino-benzylamino)-4-methoxy-N-phenyl-benzamide] returned an IC50 of 69 nM.
Still for that read-out and setting: then `COc1ccc(C(=O)Nc2ccc(F)c(F)c2)cc1NCc1cccc(F)c1` [Example 212, 3-(3-Fluoro-benzylamino)-4-methoxy-N-(3,4-difluoro-phenyl)-benzamide], with 69 nM.
On the same count and under the same terms, then `COc1ccc(C(=O)Nc2ccccc2)cc1NCc1cccc(O)c1` [Example 213, 3-(3-Hydroxy-benzylamino)-4-methoxy-N-phenyl-benzamide], with 79 nM; and `COc1ccc(C(=O)Nc2ccccc2)cc1NCc1cccc(F)c1` [Example 214, 4-Methoxy-3-(3-fluoro-benzylamino)-N-phenyl-benzamide], with 89 nM; and `COc1ccc(C(=O)Nc2ccccc2)cc1NCc1cccc([N+](=O)[O-])c1` [Example 215, 4-Methoxy-3-(3-nitro-benzylamino)-N-phenyl-benzamide], with 110 nM.
`COc1ccc(CNc2cc(C(=O)Nc3ccccc3)ccc2OC)cc1` [Example 216, 4-Methoxy-3-(4-methoxy-benzylamino)-N-phenyl-benzamide] registered an IC50 of 118 nM.
For `COc1ccc(C(=O)Nc2ccccc2)cc1NCc1cccc2ccccc12` [Example 217, 4-Methoxy-3-[(naphthalen-1-ylmethyl)-amino]-N-phenyl-benzamide], the IC50 was found to be 129 nM.
In turn, `COc1ccc(C(=O)Nc2ccccc2)cc1NCc1cc(C)cc(C)c1` [Example 218, 4-Methoxy-3-(3,5-dimethyl-benzylamino)-N-phenyl-benzamide] showed an IC50 of 161 nM.
The compound `COc1ccc(C(=O)Nc2ccccc2)cc1NCc1cccc(F)c1F` [Example 219, 3-(2,3-Difluoro-benzylamino)-4-methoxy-N-phenyl-benzamide] gave an IC50 of 166 nM.
Regarding `COc1ccc(C(=O)Nc2ccccc2)cc1NCc1ccc(OC(C)=O)cc1` [Example 220, Acetic acid 4-[(2-methoxy-5-phenylcarbamoyl-phenylamino)-methyl]-phenyl Ester], the IC50 amounted to 509 nM.
In turn, `COC(=O)c1ccc(CNc2cc(C(=O)Nc3ccccc3)ccc2OC)cc1` [Example 221, 4-[(2-Methoxy-5-phenylcarbamoyl-phenylamino)-methyl]-benzoic Acid Methyl Ester] came in with an IC50 of 551 nM.
Regarding `COc1ccc(C(=O)Nc2ccccc2)cc1NCc1ccccc1C` [Example 223, 4-Methoxy-3-(2-methyl-benzylamino)-N-phenyl-benzamide], the IC50 was found to be 892 nM.
`COc1ccc(C(=O)Nc2ccccc2)cc1NCc1ccc(F)cc1` [Example 224, 4-Methoxy-3-(4-fluoro-benzylamino)-N-phenyl-benzamide] registered an IC50 of 982 nM.
The same measure, in the same setting: then `COc1ccc(C(=O)Nc2ccccc2)cc1NCc1cccc(Cl)c1` [Example 231, 3-(3-Chloro-benzylamino)-4-methoxy-N-phenyl-benzamide], with 224 nM.

Staying with this experiment, now noted: Table 2; concentration not given.
Take `O=C(Nc1ccc(F)c(NS(=O)(=O)c2cccs2)c1)c1ccc(F)c(F)c1` [Example 206, 3,4-Difluoro-N-[4-fluoro-3-(thiophene-2-sulfonylamino)-phenyl]-benzamide]: the “h15LO, value given as bare %” value turned out to be 45.56%.
Same read-out and setting: the same measure for `COc1ccc(NC(=O)Nc2ccc(Cl)c(Cl)c2)cc1NS(=O)(=O)c1cccs1` [Example 207, Thiophene-2-sulfonic acid {5-[3-(3,4-dichloro-phenyl)-ureido]-2-methoxy-phenyl}-amide]: 41.59%.
As for `COc1ccc(C(=O)Nc2ccccc2)cc1NCc1ccc(O)c([N+](=O)[O-])c1` [Example 225, 3-(4-Hydroxy-3-nitro-benzylamino)-4-methoxy-N-phenyl-benzamide], the “h15LO, value given as bare %” value is reported as 97.88%.
On to `CCN(CC)c1ccc(CNc2cc(C(=O)Nc3ccc(F)c(F)c3)ccc2OC)cc1` [Example 226, 3-(4-Diethylamino-benzylamino)-4-methoxy-N-(3,4-difluoro-phenyl)-benzamide], for which the “h15LO, value given as bare %” value is 96.21%.
In the case of `COc1ccc(C(=O)Nc2ccc(F)c(F)c2)cc1NCc1ccccc1` [Example 227, 3-Benzylamino-4-methoxy-N-(3,4-difluoro-phenyl)-benzamide], the “h15LO, value given as bare %” value came to 95.74%.
Take `COc1ccc(C(=O)Nc2ccccc2)cc1NCc1ccc([N+](=O)[O-])c(O)c1` [Example 228, 3-(3-Hydroxy-4-nitro-benzylamino)-4-methoxy-N-phenyl-benzamide]: the “h15LO, value given as bare %” value amounted to 92.92%.
As to `COc1ccc(C(=O)Nc2ccccc2)cc1NCc1cccc(C#N)c1` [Example 229, 3-(3-Cyano-benzylamino)-4-methoxy-N-phenyl-benzamide], the “h15LO, value given as bare %” value is 92.70%.
On to `COc1ccc(C(=O)Nc2ccc(F)c(F)c2)cc1NCc1cccc(C(=O)O)c1` [Example 230, 3-{[5-(3,4-Difluoro-phenylcarbamoyl)-2-methoxy-phenylamino]-methyl}-benzoic Acid], for which the “h15LO, value given as bare %” value came out at 92.57%.
In the case of `COc1ccc(C(=O)Nc2ccccc2)cc1NCc1ccc(C(C)(C)C)cc1` [Example 232, 3-(4-tert-Butyl-benzylamino)-4-methoxy-N-phenyl-benzamide], the “h15LO, value given as bare %” value is 80.36%.
On to `COc1ccc(C(=O)Nc2ccccc2)cc1NCc1ccc(C#N)cc1` [Example 233, 3-(4-Cyano-benzylamino)-4-methoxy-N-phenyl-benzamide], for which the “h15LO, value given as bare %” value is given as 73.46%.
With `COc1ccc(C(=O)Nc2ccc(F)c(F)c2)cc1NCc1ccc(C(=O)O)cc1` [Example 234, 4-{[5-(3,4-Difluoro-phenylcarbamoyl)-2-methoxy-phenylalino]-methyl}-benzoic Acid], the “h15LO, value given as bare %” value is 71.56%.
On the same count and under the same terms, then `CCCOc1ccc(CNc2cc(C(=O)Nc3ccccc3)ccc2OC)cc1` [Example 235, 4-Methoxy-3-(4-propoxy-benzylamino)-N-phenyl-benzamide], with 67.26%; and `COc1ccc(C(=O)Nc2ccccc2)cc1NCc1ccc(-c2ccccc2)cc1` [Example 236, 3-[(Biphenyl-4-ylmethyl)-amino]-4-methoxy-N-phenyl-benzamide], with 64.09%; and `COc1ccc(C(=O)Nc2ccccc2)cc1NCc1ccc(C)cc1` [Example 237, 4-Methoxy-3-(4-methyl-benzylamino)-N-phenyl-benzamide], with 64%.
In the case of `COc1ccccc1CNc1cc(C(=O)Nc2ccccc2)ccc1OC` [Example 238, 4-Methoxy-3-(2-methoxy-benzylamino)-N-phenyl-benzamide], the “h15LO, value given as bare %” value is 60%.
On the same count and under the same terms, then `CCCCc1ccc(CNc2cc(C(=O)Nc3ccccc3)ccc2OC)cc1` [Example 239, 3-(4-Butyl-benzylamino)-4-methoxy-N-phenyl-benzamide], with 58.44%.
On to `COc1ccc(C(=O)Nc2ccc(Cl)c(Cl)c2)cc1NCc1cccc(F)c1` [Example 240, 3-(3-Fluoro-benzylamino)-4-methoxy-N-(3,4-dichloro-phenyl)-benzamide], for which the “h15LO, value given as bare %” value was determined as 58.09%.
With `COc1ccc(C(=O)Nc2ccccc2)cc1NCc1cccc(C(=O)O)c1` [Example 241, 3-[(2-Methoxy-5-phenylcarbamoyl-phenylamino)-methyl]-benzoic Acid], the “h15LO, value given as bare %” value turned out to be 56.33%.
As to `COc1ccc(C(=O)Nc2ccccc2)cc1NCc1ccc(C)c(C)c1` [Example 242, 3-(3,4-Dimethyl-benzylamino)-4-methoxy-N-phenyl-benzamide], the “h15LO, value given as bare %” value was found to be 50%.
Regarding `COc1ccc(C(=O)Nc2ccccc2)cc1NCc1ccc(C(C)C)cc1` [Example 243, 3-(4-Isopropyl-benzylamino)-4-methoxy-N-phenyl-benzamide], the “h15LO, value given as bare %” value is listed as 49.19%.
